Among the test systems are IGROV1 ovarian; NCI-H226 lung; TK-10 renal; NCI-H23 lung; RPMI-8226 leukemia; SR leukemia; NCI-H460 lung; COLO 205 colon; SK-OV-3 ovarian; HCC-2998 colon.
Common to all, as to experiment: DTP human tumour cell line panel, 48 h

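Interpolation was linear, between the two tested concentrations surrounding the appropriate level; five concentrations were tested over 48 hours in 96-well plates. GI50 = concentration required for 50% inhibition of growth. TGI is the concentration that stops growth completely.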 Some results are limits rather than exact numbers.

With `COc1ccc(C2CC(c3ccc(OC)cc3O)=NN2c2ccc(S(N)(=O)=O)cc2)cc1` (stereo unspecified), the GI50 in the test with IGROV1 ovarian was 6.34 µM; with NCI-H226 lung it was 11.7 µM; in the test on TK-10 renal, 7.18 µM; with NCI-H23 lung, 20.5 µM; with RPMI-8226 leukemia it was 4.67 µM; in the test with SR leukemia, 1.47 µM. Moreover, the GI50 is 6.74 µM in the test with NCI-H460 lung, 5.98 µM in the test with COLO 205 colon, 26.1 µM in the test on SK-OV-3 ovarian and 16.5 µM with HCC-2998 colon. The concentration for total growth inhibition (TGI) with IGROV1 ovarian was more than 100 µM; with NCI-H226 lung it was more than 100 µM; with TK-10 renal, more than 100 µM; in the test on NCI-H23 lung it was more than 100 µM; in the test with RPMI-8226 leukemia, more than 100 µM; with SR leukemia it was 9.61 µM. In addition, the TGI in the test on NCI-H460 lung is 39.2 µM; in the test with COLO 205 colon, 20.1 µM; in the test with SK-OV-3 ovarian it was more than 100 µM; in the test on HCC-2998 colon, more than 100 µM.
For the molecule `O=C(Nc1n[nH]c2nc(-c3ccc(O)cc3)c(Br)cc12)C1CC1`, the GI50 with IGROV1 ovarian was 5.75 µM; with NCI-H226 lung, 3.14 µM; in the test with TK-10 renal it was 7.29 µM; in the test with NCI-H23 lung it was 4.78 µM; in the test with RPMI-8226 leukemia it was 6.05 µM; in the test with SR leukemia it was 1.53 µM. The GI50 was 1.89 µM with NCI-H460 lung, 3.18 µM with COLO 205 colon, 2.67 µM in the test on SK-OV-3 ovarian and 4.76 µM in the test with HCC-2998 colon. Also, the TGI is more than 20.6 µM in the test with IGROV1 ovarian; 13.5 µM in the test with NCI-H226 lung; 17.4 µM with TK-10 renal; 16.8 µM in the test with NCI-H23 lung; 15.7 µM in the test with RPMI-8226 leukemia; more than 15.4 µM in the test on SR leukemia. Moreover, the TGI with NCI-H460 lung was more than 20.1 µM; in the test with COLO 205 colon it was 8.76 µM; with SK-OV-3 ovarian, 11.8 µM; in the test with HCC-2998 colon, more than 20.3 µM.
Take `Cc1c[nH]c(=O)n(Cc2nnc(CCC(=O)c3nc4ccccc4[nH]3)o2)c1=O`: the GI50 was 0.575 µM in the test on IGROV1 ovarian; 3.48 µM in the test with NCI-H226 lung; 3.68 µM in the test with TK-10 renal; 0.432 µM with NCI-H23 lung; 0.34 µM with RPMI-8226 leukemia; 0.447 µM in the test with SR leukemia. The concentration for 50% growth inhibition (GI50) was 0.387 µM in the test on NCI-H460 lung, 0.299 µM in the test with COLO 205 colon, 0.46 µM in the test on SK-OV-3 ovarian and 0.421 µM in the test with HCC-2998 colon. Further, the concentration for total growth inhibition (TGI) was more than 90.4 µM in the test on IGROV1 ovarian; more than 100 µM in the test on NCI-H226 lung; more than 80.6 µM in the test with TK-10 renal; more than 100 µM in the test on RPMI-8226 leukemia; more than 100 µM in the test with SR leukemia; more than 43.1 µM in the test with NCI-H460 lung. The figures for the concentration for total growth inhibition (TGI) in the test with COLO 205 colon, in the test on SK-OV-3 ovarian and with HCC-2998 colon were 1.04 µM, 13.2 µM and 7.14 µM, respectively.
Consider `Cc1ccc(/C=N/NS(=O)(=O)c2ccccc2)cc1C`, for which the total growth inhibition concentration (TGI) with IGROV1 ovarian, in the test on NCI-H226 lung, in the test on TK-10 renal, in the test on NCI-H23 lung, in the test on RPMI-8226 leukemia and in the test on SR leukemia was more than 100 µM each time. The total growth inhibition concentration (TGI) in the test with NCI-H460 lung, in the test on COLO 205 colon, in the test with SK-OV-3 ovarian and with HCC-2998 colon was more than 100 µM in each case.
Turning to `O=C(Nc1cccc(C(F)(F)F)c1)c1ccc(NC2=C(Cl)C(=O)N(Cc3ccccc3)C2=O)cc1`, the GI50 is 2.01 µM in the test on IGROV1 ovarian; 16 µM in the test with NCI-H226 lung; 17.9 µM in the test with TK-10 renal; 4.13 µM in the test on NCI-H23 lung; 2.17 µM in the test with RPMI-8226 leukemia; 0.421 µM with SR leukemia. Besides, the GI50 was 5.91 µM with NCI-H460 lung, 21.9 µM with COLO 205 colon, 25.7 µM with SK-OV-3 ovarian and 1.29 µM in the test with HCC-2998 colon. Besides, the TGI in the test on IGROV1 ovarian is 4.63 µM; with NCI-H226 lung, 35.8 µM; with TK-10 renal it was 37.4 µM; in the test with NCI-H23 lung, 13.4 µM; in the test with RPMI-8226 leukemia it was 4.88 µM; with SR leukemia, 2.82 µM. Moreover, the TGI in the test on NCI-H460 lung was 57 µM; in the test on COLO 205 colon it was 49.8 µM; in the test on SK-OV-3 ovarian, 82.6 µM; in the test on HCC-2998 colon, 2.85 µM.
As for `CCn1c(SCC(=O)Nc2cc(C(F)(F)F)ccc2Cl)nc2ccccc2c1=O`, the GI50 in the test on IGROV1 ovarian is 28.1 µM; in the test on NCI-H226 lung, 29.9 µM; in the test on TK-10 renal, 23.7 µM; in the test on NCI-H23 lung, 46.9 µM; with RPMI-8226 leukemia it was more than 100 µM; with SR leukemia it was more than 100 µM. The GI50 in the test on NCI-H460 lung was 30.5 µM; with COLO 205 colon, more than 100 µM; in the test on SK-OV-3 ovarian, 14.6 µM; in the test with HCC-2998 colon it was more than 100 µM. Besides, the total growth inhibition concentration (TGI) in the test on IGROV1 ovarian was more than 100 µM; in the test on NCI-H226 lung, more than 100 µM; in the test on TK-10 renal, 66.2 µM; in the test with NCI-H23 lung, more than 100 µM; in the test with RPMI-8226 leukemia it was more than 100 µM; with SR leukemia it was more than 100 µM. Further, the TGI was more than 100 µM in the test with NCI-H460 lung, more than 100 µM in the test on COLO 205 colon, 30.9 µM with SK-OV-3 ovarian and more than 100 µM in the test with HCC-2998 colon.
As to `O=C(O)CCSC(=O)Nc1cccc2ccccc12`, the TGI in the test with IGROV1 ovarian, with NCI-H226 lung, in the test on TK-10 renal, in the test on NCI-H23 lung, in the test with RPMI-8226 leukemia and with SR leukemia was more than 100 µM in each case. Also, the TGI with NCI-H460 lung, in the test with COLO 205 colon, with SK-OV-3 ovarian and in the test with HCC-2998 colon was more than 100 µM throughout.
Consider `CC[C@H]1CCC/C=C/[C@@H]2C[C@H](O)C[C@H]2[C@H](O)/C=C/C(=O)O1`, for which the GI50 with IGROV1 ovarian was 0.152 µM; with NCI-H226 lung, 0.0197 µM; with TK-10 renal, 0.0355 µM; in the test with NCI-H23 lung, 0.0414 µM; with RPMI-8226 leukemia, 0.0387 µM; in the test with SR leukemia, 0.0292 µM. Moreover, the results for the GI50 with NCI-H460 lung, in the test with COLO 205 colon and with SK-OV-3 ovarian were 0.107 µM, 0.0213 µM and 0.0476 µM, respectively. For the same molecule, the TGI in the test on IGROV1 ovarian is more than 100 µM; with NCI-H226 lung, 0.0424 µM; in the test on TK-10 renal, 0.568 µM; in the test with NCI-H23 lung it was 5.23 µM; in the test on RPMI-8226 leukemia, 12.5 µM; in the test with SR leukemia, 0.115 µM. The TGI was more than 100 µM with NCI-H460 lung and 0.0395 µM in the test with COLO 205 colon.

Source of the values: PubChem BioAssay (NCI).
